From PMC9977294, “A parasitic fungus employs mutated eIF4A to survive on rocaglate-synthesizing Aglaia plants” (eLife, 2023)
Several values for one entry are separate records, joined by “and”; a condition that tells them apart may be missing. Equal values may be shown once.

Experiments:
Experiment in all cases: Fluorescence polarization assay, FAM-labeled [AG]10 RNA and recombinant eIF4A
Assay type in all cases: binding
[1] = molecular target: Ophiocordyceps sp. BRM1 eIF4A iso4 Gly172His; conditions: for Fluorescence polarization signal, FAM-labeled [AG]10 RNA, single replicates / Fluorescence polarization signal, FAM-labeled [AG]10 RNA, Mean: ADP + Pi, aglafoline; for Fluorescence polarization signal, FAM-labeled [AG]10 RNA, single replicates: Replicate 1-3; for Fluorescence polarization signal, FAM-labeled [AG]10 RNA, Mean: mean of 3 replicates
Method: (§1) The fluorescence polarization assay was performed as previously described ([Chen et al., 2021]). […] After incubation at room temperature for 30 min, the mixture was transferred to a black 384-well microplate (Corning), and the fluorescence polarization was measured by an Infinite F-200 PRO (Tecan). Under ADP + Pi conditions, 1 mM ADP (Fujifilm Wako Chemicals) and 1 mM Na2HPO4 were used as substitutes for AMP-PNP. The data were fitted to the Hill equation to calculate Kd values and visualized by Igor Pro v8.01 (WaveMetrics).

[2] = molecular target: Ophiocordyceps sp. BRM1 eIF4A iso4 Gly172Phe; conditions: for Fluorescence polarization, Replicate 1-3 / fluorescence polarization, Mean: [AG]10 RNA, ADP + Pi, Aglafoline
Method: as §1

[3] = molecular target: Ophiocordyceps sp. BRM1 eIF4A iso4 WT Gly172; conditions: for Fluorescence polarization signal, FAM-labeled [AG]10 RNA, single replicates / Fluorescence polarization signal, FAM-labeled [AG]10 RNA, Mean: ADP + Pi, aglafoline; for Fluorescence polarization signal, FAM-labeled [AG]10 RNA, single replicates: Replicate 1-3; for Fluorescence polarization signal, FAM-labeled [AG]10 RNA, Mean: mean of 3 replicates
Method: as §1

[4] = [AG]10 10 nM, ADP + Pi (1 mM each), compound 50 µM, read-out: Kd between eIF4A protein and RNA

SMILES: COC(=O)[C@H]1[C@@H](O)[C@@]2(O)c3c(OC)cc(OC)cc3O[C@@]2(c2ccc(OC)cc2)[C@@H]1c1ccccc1 [Aglafoline, methyl rocaglate]
- Kd [1, 4]: 1.5 ± 0.14 µM
- Fluorescence polarization signal, FAM-labeled [AG]10 RNA, single replicates ([1]; protein concentration 0.01 μM): -0.03825 and 0.04372 (2×)
- Fluorescence polarization signal, FAM-labeled [AG]10 RNA, Mean ([1]; protein concentration 0.01 μM): 0.01639
- Fluorescence polarization signal, FAM-labeled [AG]10 RNA, single replicates ([1]; protein concentration 0.05 μM): 0.04372 and 0.1011 and 0.0765
- Fluorescence polarization signal, FAM-labeled [AG]10 RNA, Mean ([1]; protein concentration 0.05 μM): 0.07377
- Fluorescence polarization signal, FAM-labeled [AG]10 RNA, single replicates ([1]; protein concentration 0.075 μM): 0.0847 and 0.06011 and 0.03552
- Fluorescence polarization signal, FAM-labeled [AG]10 RNA, Mean ([1]; protein concentration 0.075 μM): 0.06011
- Fluorescence polarization signal, FAM-labeled [AG]10 RNA, single replicates ([1]; protein concentration 0.1 μM): 0.0847 and 0.06011 and 0.06831
- Fluorescence polarization signal, FAM-labeled [AG]10 RNA, Mean ([1]; protein concentration 0.1 μM): 0.07104
- Fluorescence polarization signal, FAM-labeled [AG]10 RNA, single replicates ([1]; protein concentration 0.5 μM): 0.3388 and 0.429 and 0.3634
- Fluorescence polarization signal, FAM-labeled [AG]10 RNA, Mean ([1]; protein concentration 0.5 μM): 0.377
- Fluorescence polarization signal, FAM-labeled [AG]10 RNA, single replicates ([1]; protein concentration 0.75 μM): 0.5191 and 0.4372 and 0.429
- Fluorescence polarization signal, FAM-labeled [AG]10 RNA, Mean ([1]; protein concentration 0.75 μM): 0.4617
- Fluorescence polarization signal, FAM-labeled [AG]10 RNA, single replicates ([1]; protein concentration 1 μM): 0.5765 and 0.7158 and 0.5847
- Fluorescence polarization signal, FAM-labeled [AG]10 RNA, Mean ([1]; protein concentration 1 μM): 0.6257
- Fluorescence polarization signal, FAM-labeled [AG]10 RNA, single replicates ([1]; protein concentration 5 μM): 1.011 and 0.9208 and 0.888
- Fluorescence polarization signal, FAM-labeled [AG]10 RNA, Mean ([1]; protein concentration 5 μM): 0.9399
- Fluorescence polarization signal, FAM-labeled [AG]10 RNA, single replicates ([1]; protein concentration 7.5 μM): 1.019 and 0.9372 and 0.9699
- Fluorescence polarization signal, FAM-labeled [AG]10 RNA, Mean ([1]; protein concentration 7.5 μM): 0.9754
- Fluorescence polarization signal, FAM-labeled [AG]10 RNA, single replicates ([1]; protein concentration 10 μM): 1.126 and 1.06 and 1.027
- Fluorescence polarization signal, FAM-labeled [AG]10 RNA, Mean ([1]; protein concentration 10 μM): 1.071
- Fluorescence polarization signal, FAM-labeled [AG]10 RNA, single replicates ([1]; protein concentration 25 μM): 1.208 and 1.167 and 1.15
- Fluorescence polarization signal, FAM-labeled [AG]10 RNA, Mean ([1]; protein concentration 25 μM): 1.175
- Fluorescence polarization signal, FAM-labeled [AG]10 RNA, single replicates ([1]; protein concentration 50 μM): 1.191 and 1.306 and 1.257
- Fluorescence polarization signal, FAM-labeled [AG]10 RNA, Mean ([1]; protein concentration 50 μM): 1.251
- Kd [2, 4]: 0.11 ± 0.021 µM
- Fluorescence polarization, Replicate 1-3 ([2]; protein concentration 0.01 μM): 0.1148 and 0.008197 and 0.04098
- fluorescence polarization, Mean ([2]; protein concentration 0.01 μM): 0.05464
- Fluorescence polarization, Replicate 1-3 ([2]; protein concentration 0.05 μM): 0.2869 (2×) and 0.3279
- fluorescence polarization, Mean ([2]; protein concentration 0.05 μM): 0.3005
- Fluorescence polarization, Replicate 1-3 ([2]; protein concentration 0.075 μM): 0.3689 and 0.3279 and 0.2869
- fluorescence polarization, Mean ([2]; protein concentration 0.075 μM): 0.3279
- Fluorescence polarization, Replicate 1-3 ([2]; protein concentration 0.1 μM): 0.5164 and 0.3115 and 0.2787
- fluorescence polarization, Mean ([2]; protein concentration 0.1 μM): 0.3689
- Fluorescence polarization, Replicate 1-3 ([2]; protein concentration 0.5 μM): 0.9262 and 0.9426 and 0.8197
- fluorescence polarization, Mean ([2]; protein concentration 0.5 μM): 0.8962
- Fluorescence polarization, Replicate 1-3 ([2]; protein concentration 0.75 μM): 0.9508 and 0.8443 and 0.8934
- fluorescence polarization, Mean ([2]; protein concentration 0.75 μM): 0.8962
- Fluorescence polarization, Replicate 1-3 ([2]; protein concentration 1 μM): 0.7869 and 0.877 and 0.7623
- fluorescence polarization, Mean ([2]; protein concentration 1 μM): 0.8087
- Fluorescence polarization, Replicate 1-3 ([2]; protein concentration 5 μM): 0.9016 and 0.9426 and 0.8852
- fluorescence polarization, Mean ([2]; protein concentration 5 μM): 0.9098
- Fluorescence polarization, Replicate 1-3 ([2]; protein concentration 7.5 μM): 0.8934 and 1.016 and 0.9344
- fluorescence polarization, Mean ([2]; protein concentration 7.5 μM): 0.9481
- Fluorescence polarization, Replicate 1-3 ([2]; protein concentration 10 μM): 1.057 and 0.8934 and 0.877
- fluorescence polarization, Mean ([2]; protein concentration 10 μM): 0.9426
- Fluorescence polarization, Replicate 1-3 ([2]; protein concentration 25 μM): 0.8852 and 1.033 and 1.057
- fluorescence polarization, Mean ([2]; protein concentration 25 μM): 0.9918
- Kd [3, 4]: 2.6 ± 0.4 µM
- Fluorescence polarization signal, FAM-labeled [AG]10 RNA, single replicates ([3]; protein concentration 0.01 μM): 0.02459 and 0.04098 and 0.008197
- Fluorescence polarization signal, FAM-labeled [AG]10 RNA, Mean ([3]; protein concentration 0.01 μM): 0.02459
- Fluorescence polarization signal, FAM-labeled [AG]10 RNA, single replicates ([3]; protein concentration 0.05 μM): 0.03279 and -0.008197 and -0.07377
- Fluorescence polarization signal, FAM-labeled [AG]10 RNA, Mean ([3]; protein concentration 0.05 μM): -0.01639
- Fluorescence polarization signal, FAM-labeled [AG]10 RNA, single replicates ([3]; protein concentration 0.075 μM): -0.04918 and -0.03279 and 0.01639
- Fluorescence polarization signal, FAM-labeled [AG]10 RNA, Mean ([3]; protein concentration 0.075 μM): -0.02186
- Fluorescence polarization signal, FAM-labeled [AG]10 RNA, single replicates ([3]; protein concentration 0.1 μM): -0.02459 and -0.04098 and -0.05738
- Fluorescence polarization signal, FAM-labeled [AG]10 RNA, Mean ([3]; protein concentration 0.1 μM): -0.04098
- Fluorescence polarization signal, FAM-labeled [AG]10 RNA, single replicates ([3]; protein concentration 0.5 μM): 0.1557 and -0.1066 and 0.01639
- Fluorescence polarization signal, FAM-labeled [AG]10 RNA, Mean ([3]; protein concentration 0.5 μM): 0.02186
- Fluorescence polarization signal, FAM-labeled [AG]10 RNA, single replicates ([3]; protein concentration 0.75 μM): 0.1967 and 0.03279 and 0.1721
- Fluorescence polarization signal, FAM-labeled [AG]10 RNA, Mean ([3]; protein concentration 0.75 μM): 0.1339
- Fluorescence polarization signal, FAM-labeled [AG]10 RNA, single replicates ([3]; protein concentration 1 μM): 0.09836 and 0.06557 and 0.1557
- Fluorescence polarization signal, FAM-labeled [AG]10 RNA, Mean ([3]; protein concentration 1 μM): 0.1066
- Fluorescence polarization signal, FAM-labeled [AG]10 RNA, single replicates ([3]; protein concentration 5 μM): 0.582 and 0.6803 and 0.5902
- Fluorescence polarization signal, FAM-labeled [AG]10 RNA, Mean ([3]; protein concentration 5 μM): 0.6175
- Fluorescence polarization signal, FAM-labeled [AG]10 RNA, single replicates ([3]; protein concentration 7.5 μM): 0.5902 and 0.6311 and 0.7541
- Fluorescence polarization signal, FAM-labeled [AG]10 RNA, Mean ([3]; protein concentration 7.5 μM): 0.6585
- Fluorescence polarization signal, FAM-labeled [AG]10 RNA, single replicates ([3]; protein concentration 10 μM): 0.6557 and 0.7049 and 0.7131
- Fluorescence polarization signal, FAM-labeled [AG]10 RNA, Mean ([3]; protein concentration 10 μM): 0.6913
- Fluorescence polarization signal, FAM-labeled [AG]10 RNA, single replicates ([3]; protein concentration 25 μM): 0.7787 and 0.8279 and 0.877
- Fluorescence polarization signal, FAM-labeled [AG]10 RNA, Mean ([3]; protein concentration 25 μM): 0.8279
